Data taken from article PMC6990627 (ACS Omega, 2020).
“And” between values parts separate entries of the source, which are not always exact repeats. Equal values may be shown once. Where a name gives a salt, the structure may show the parent alone. Read-outs that look alike come from different tables or passages of the source.

Experiments:
[1] = target: T1, eqBChE (Equus caballus, UniProt P81908); experiment: Enzyme kinetics; type: biochemical, equine; conditions: Lineweaver-Burk plot
[2] = target: T1, eqBChE; experiment: Ellman assay, eqBChE inhibition; type: biochemical, equine; conditions: screened at 10 and 100 μM
[3] = tested on: AChE; conditions: read-out: AChE IC50, cited from earlier work
[4] = target: EeAChE (Electrophorus electricus, UniProt O42275); experiment: Ellman assay, EeAChE inhibition; type: biochemical; conditions: average of three determinations
EeAChE, sequence (O42275 24-633): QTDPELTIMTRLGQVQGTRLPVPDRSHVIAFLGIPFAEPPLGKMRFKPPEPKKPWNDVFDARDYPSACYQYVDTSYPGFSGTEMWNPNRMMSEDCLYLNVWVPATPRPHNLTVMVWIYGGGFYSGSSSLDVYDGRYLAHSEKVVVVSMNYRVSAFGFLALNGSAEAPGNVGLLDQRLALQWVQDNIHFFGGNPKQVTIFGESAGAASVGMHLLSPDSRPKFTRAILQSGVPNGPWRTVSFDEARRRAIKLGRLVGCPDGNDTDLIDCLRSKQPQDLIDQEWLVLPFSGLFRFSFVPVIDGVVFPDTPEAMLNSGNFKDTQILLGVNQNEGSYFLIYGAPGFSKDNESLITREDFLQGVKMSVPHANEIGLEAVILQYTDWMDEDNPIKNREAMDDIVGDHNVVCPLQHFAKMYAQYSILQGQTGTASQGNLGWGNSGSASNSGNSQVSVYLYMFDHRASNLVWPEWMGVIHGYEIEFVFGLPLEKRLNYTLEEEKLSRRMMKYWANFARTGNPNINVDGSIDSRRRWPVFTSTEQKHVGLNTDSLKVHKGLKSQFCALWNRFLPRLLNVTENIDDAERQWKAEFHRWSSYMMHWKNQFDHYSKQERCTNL

T1 sequence (P81908 whole entry): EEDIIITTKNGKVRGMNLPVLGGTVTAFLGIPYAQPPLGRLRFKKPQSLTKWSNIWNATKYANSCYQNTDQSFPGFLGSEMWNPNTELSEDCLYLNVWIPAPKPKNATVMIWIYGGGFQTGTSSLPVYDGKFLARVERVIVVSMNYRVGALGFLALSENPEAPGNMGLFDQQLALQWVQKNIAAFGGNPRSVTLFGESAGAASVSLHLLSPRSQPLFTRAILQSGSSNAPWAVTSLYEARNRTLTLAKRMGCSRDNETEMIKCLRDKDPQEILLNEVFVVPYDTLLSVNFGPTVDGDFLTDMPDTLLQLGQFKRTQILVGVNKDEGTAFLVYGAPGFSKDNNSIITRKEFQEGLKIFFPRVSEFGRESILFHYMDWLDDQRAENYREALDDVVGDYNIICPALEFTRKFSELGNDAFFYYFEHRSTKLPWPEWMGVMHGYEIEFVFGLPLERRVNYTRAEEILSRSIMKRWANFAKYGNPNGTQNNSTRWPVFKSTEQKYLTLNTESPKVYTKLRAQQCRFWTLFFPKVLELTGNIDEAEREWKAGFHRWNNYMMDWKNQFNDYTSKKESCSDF

Structure (SMILES) | type of inhibition, eqBChE [1] | activity against BChE (in words) [2] | IC50 ([3]; ref 19) [µM] | IC50 [4] | IC50 ([3]; ref 20) [µM]
COc1cc2c(cc1OC)C(=O)C(CC1CCN(Cc3ccccc3)CC1)C2 (stereo not drawn) [donepezil HCl, donepezil hydrochloride] | noncompetitive |  |  |  | 
COc1cc(O)c2c(c1)C(=O)c1cc(C)cc(O)c1C2=O [physcion] |  | weakly active | 8.25 | 12 µM and 12.2 µM | 
Cc1cc(O)c2c(c1)C(=O)c1cc(O)cc(O)c1C2=O [emodin] |  | weakly active | 9.17 | 15 µM and 15.2 µM | 21.8
Cc1cc(O)c2c(c1)C(=O)c1cccc(O)c1C2=O [chrysophanol] |  | weakly active | 68.6 | 34 µM and 33.7 µM | 75.8
